# Measured values: patent US9902696B2, “1,4-substituted piperidine derivatives” (Cephalon, Inc., priority 2015, dated 2018)
# Counter-ions that a name gives are not always drawn.
# Biological target: T1, recombinant human baculovirus-expressed GST-tagged FASN (Homo sapiens, UniProt P49327)
# T1 construct: GST
# Assay: FASN enzyme activity assay, fluorescence-based detection of CoA with CPM
# Assay type: biochemical
# Settings: 5 nM FASN, 150 μM NADPH, 10 μM acetyl-CoA, 25 μM malonyl-CoA, 90 minutes incubation; read-out: IC50 data for Additional Compounds of Formulae I-V(a): Activity
# Outline: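 CoA product reacted with thiol-reactive CPM (diluted to 50 μM in 70% ethanol), read at 390/530 nm after 30 min. Preceding reaction: 90 min, 5 nM recombinant GST-FASN, 150 μM NADPH, 10 μM acetyl-CoA, 25 μM malonyl-CoA, pH 7.5 HEPES, 0.5% DMSO. IC50s fitted by nonlinear sigmoidal regression.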
# T1 sequence (P49327 whole entry): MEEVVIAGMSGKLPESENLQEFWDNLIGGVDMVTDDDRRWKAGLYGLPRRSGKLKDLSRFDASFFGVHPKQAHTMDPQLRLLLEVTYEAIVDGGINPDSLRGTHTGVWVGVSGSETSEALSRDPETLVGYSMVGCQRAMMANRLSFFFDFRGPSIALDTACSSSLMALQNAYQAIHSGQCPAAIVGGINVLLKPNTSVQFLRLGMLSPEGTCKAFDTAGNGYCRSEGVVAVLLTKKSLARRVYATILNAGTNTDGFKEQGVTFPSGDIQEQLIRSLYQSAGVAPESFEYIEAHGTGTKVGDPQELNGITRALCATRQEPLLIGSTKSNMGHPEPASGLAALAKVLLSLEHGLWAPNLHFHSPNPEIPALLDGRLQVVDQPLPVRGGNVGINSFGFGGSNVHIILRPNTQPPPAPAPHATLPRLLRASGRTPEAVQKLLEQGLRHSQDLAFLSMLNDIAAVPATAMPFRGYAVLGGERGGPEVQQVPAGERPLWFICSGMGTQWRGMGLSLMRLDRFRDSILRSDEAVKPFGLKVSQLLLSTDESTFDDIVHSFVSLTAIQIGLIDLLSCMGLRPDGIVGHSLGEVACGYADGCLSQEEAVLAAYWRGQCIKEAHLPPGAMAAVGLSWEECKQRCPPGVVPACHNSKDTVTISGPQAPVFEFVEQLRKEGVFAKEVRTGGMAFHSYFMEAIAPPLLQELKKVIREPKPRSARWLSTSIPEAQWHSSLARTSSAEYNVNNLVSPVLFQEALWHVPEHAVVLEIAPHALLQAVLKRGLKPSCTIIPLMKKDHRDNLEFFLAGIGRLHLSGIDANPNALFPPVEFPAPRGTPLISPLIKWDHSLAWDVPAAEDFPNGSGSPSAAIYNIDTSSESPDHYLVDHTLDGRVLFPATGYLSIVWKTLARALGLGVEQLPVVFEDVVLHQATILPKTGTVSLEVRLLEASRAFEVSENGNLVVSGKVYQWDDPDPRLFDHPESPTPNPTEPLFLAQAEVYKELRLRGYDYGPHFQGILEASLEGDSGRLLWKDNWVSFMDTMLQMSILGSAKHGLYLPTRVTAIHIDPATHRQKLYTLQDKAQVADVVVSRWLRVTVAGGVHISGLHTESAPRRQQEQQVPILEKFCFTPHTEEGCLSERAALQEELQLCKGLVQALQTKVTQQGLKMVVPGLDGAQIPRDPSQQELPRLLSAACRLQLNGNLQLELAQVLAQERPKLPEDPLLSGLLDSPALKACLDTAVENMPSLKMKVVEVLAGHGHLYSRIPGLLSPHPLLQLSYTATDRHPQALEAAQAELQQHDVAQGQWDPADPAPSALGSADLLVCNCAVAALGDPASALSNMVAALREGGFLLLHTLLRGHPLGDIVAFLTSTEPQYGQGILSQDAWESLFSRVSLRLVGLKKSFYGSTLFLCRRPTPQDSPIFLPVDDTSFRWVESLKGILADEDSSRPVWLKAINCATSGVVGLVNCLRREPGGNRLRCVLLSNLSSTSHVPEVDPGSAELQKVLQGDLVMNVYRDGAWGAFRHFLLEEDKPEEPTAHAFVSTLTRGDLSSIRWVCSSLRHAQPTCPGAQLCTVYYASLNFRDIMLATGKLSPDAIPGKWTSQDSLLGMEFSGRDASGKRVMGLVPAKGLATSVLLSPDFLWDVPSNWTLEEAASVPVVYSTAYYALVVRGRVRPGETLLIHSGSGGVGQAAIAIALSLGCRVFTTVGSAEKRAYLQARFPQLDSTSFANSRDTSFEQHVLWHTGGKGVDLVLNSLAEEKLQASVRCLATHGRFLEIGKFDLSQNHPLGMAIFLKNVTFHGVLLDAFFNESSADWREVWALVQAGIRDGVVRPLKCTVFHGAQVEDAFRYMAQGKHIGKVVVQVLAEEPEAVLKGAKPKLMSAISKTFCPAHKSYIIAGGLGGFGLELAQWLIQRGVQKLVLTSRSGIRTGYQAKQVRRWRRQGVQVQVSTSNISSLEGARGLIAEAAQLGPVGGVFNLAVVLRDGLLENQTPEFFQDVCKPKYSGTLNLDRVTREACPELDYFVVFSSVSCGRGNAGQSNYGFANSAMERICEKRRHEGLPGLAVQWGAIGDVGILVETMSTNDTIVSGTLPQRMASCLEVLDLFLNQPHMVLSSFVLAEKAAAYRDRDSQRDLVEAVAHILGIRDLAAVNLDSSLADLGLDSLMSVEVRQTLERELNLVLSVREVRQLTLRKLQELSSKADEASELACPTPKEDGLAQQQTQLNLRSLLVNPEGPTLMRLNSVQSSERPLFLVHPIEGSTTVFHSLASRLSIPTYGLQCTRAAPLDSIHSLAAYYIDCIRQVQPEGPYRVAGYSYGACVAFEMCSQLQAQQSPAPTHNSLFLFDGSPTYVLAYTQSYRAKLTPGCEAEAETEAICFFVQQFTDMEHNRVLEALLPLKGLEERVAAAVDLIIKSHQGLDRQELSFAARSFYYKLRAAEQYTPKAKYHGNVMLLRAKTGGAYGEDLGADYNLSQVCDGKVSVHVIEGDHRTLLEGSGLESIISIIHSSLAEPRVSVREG
row,Compound,IC50
1,"Cc1c(-c2ccc(OC3CCN(C(=O)[C@H]4CCCN4C)CC3)cc2)ccc2cccnc12 [Example 616, [(2R)-1-Methylpyrrolidin-2-yl]-[4-[4-(8-methyl-7-quinolyl)phenoxy]-1-piperidyl]methanone]",1000 to 10000 nM
2,"Cc1c(-c2ccc(OC3CCN(C(=O)N4CCCCCC4)CC3)cc2)ccc2cccnc12 [Example 562, Azepan-1-yl-[4-[4-(8-methyl-7-quinolyl)phenoxy]-1-piperidyl]methanone]",1000 to 10000 nM
3,"Cc1c(-c2ccc(OC3CCN(C(=O)OCC(C)C)CC3)cc2)ccc2nccn12 [Example 602, Isobutyl 4-[4-(5-methylimidazo[1,2-a]pyridin-6-yl)phenoxy]piperidine-1-carboxylate]",1000 to 10000 nM
4,"Cc1c(-c2ccc(OC3CCN(C(=O)[C@@H](C)N)CC3)cc2)ccc2cccnc12 [Example 610, (2R)-2-Amino-1-[4-[4-(8-methyl-7-quinolyl)phenoxy]-1-piperidyl]propan-1-one, 2HCl]",1000 to 10000 nM
5,"CCNC(=O)N1CCC(Oc2ccc(-c3ccc4nccn4c3C)cc2)CC1 [Example 592, N-Ethyl-4-[4-(5-methylimidazo[1,2-a]pyridin-6-yl)phenoxy]piperidine-1-carboxamide]",1 to 99 nM
6,"Cc1c(-c2ccc(OC3CCN(C(=O)NCC(C)C)CC3)cc2)ccn2ccnc12 [Example 632, N-Isobutyl-4-[4-(8-methylimidazo[1,2-a]pyridin-7-yl)phenoxy]piperidine-1-carboxamide]",1 to 99 nM

# Same assay, conditions: 5 nM FASN, 150 μM NADPH, 10 μM acetyl-CoA, 25 μM malonyl-CoA, 90 minutes incubation; read-out: IC50 data for Compounds of Formulae I-V/V(a): Activity
row,Compound,IC50
1,"O=C(c1ccon1)N1CCC(Oc2ccc(-c3cnc4ccccc4c3)cc2)CC1 [Example 124, Isoxazol-3-yl-[4-(4-quinolin-3-yl-phenoxy)-piperidin-1-yl]-methanone, HCl]",1000 to 10000 nM
2,"CNC(=O)N1CCC(Oc2ccc(-c3ccc4cccnc4c3C)cc2)CC1 [Example 95, N-methyl-4-[4-(8-methyl-7-quinolyl)phenoxy]piperidine-1-carboxamide]",1 to 99 nM
3,"Cc1c(-c2ccc(OC3CCN(C(=O)C4CC4)CC3)cc2)ccc2ncnn12 [Example 314, Cyclopropyl-{4-[4-(5-methyl-[1,2,4]triazolo[1,5-a]pyridin-6-yl)-phenoxy]-piperidin-1-yl}-methanone]",1000 to 10000 nM
4,"O=C([C@H]1CCCO1)N1CCC(Oc2ccc(-c3ccn4cnnc4c3)cc2)CC1 [Example 307, (R)-Tetrahydrofuran-2-yl-[4-(4-[1,2,4]triazolo[4,3-a]pyridin-7-yl-phenoxy)-piperidin-1-yl]-methanone]",100 to 999 nM
5,"O=C(C1CC1)N1CCC(Oc2ccc(-c3cnc4sccc4c3)cc2)CC1 [Example 255, Cyclopropyl-[4-(4-thieno[2,3-b]pyridin-5-yl-phenoxy)-piperidin-1-yl]-methanone, TFA salt]",1 to 99 nM
6,"CCC(=O)N1CCC(Oc2ccc(-c3ccc4ccc(C)nc4c3)cc2)CC1 [Example 253, 1-{4-[4-(2-Methylquinolin-7-yl)-phenoxy]-piperidin-1-yl}-propan-1-one, TFA salt]",1000 to 10000 nM
7,"Cc1cc(-c2ccc(OC3CCN(C(=O)C4CC4)CC3)cc2)cc2ncccc12 [Example 347, Cyclopropyl(4-(4-(5-methylquinolin-7-yl)phenoxy)piperidin-1-yl)methanone, HCl]",100 to 999 nM
8,"CC(C)C(=O)N1CCC(Oc2ccc(-c3ccc4ccccc4c3)cc2)CC1 [Example 11, 2-Methyl-1-[4-(4-naphthalen-2-yl-phenoxy)-piperidin-1-yl]-propan-1-one]",1000 to 10000 nM
9,"Cc1nccc2c(C)c(-c3ccc(OC4CCN(C(=O)C5CC5)CC4)cc3)ccc12 [Example 473, Cyclopropyl-[4-[4-(1,5-dimethyl-6-isoquinolyl)phenoxy]-1-piperidyl]methanone HCl]",100 to 999 nM
10,"CC(=O)CC(=O)N1CCC(Oc2ccc(-c3cnc4ccccc4c3)cc2)CC1 [Example 242, 1-[4-(4-Quinolin-3-yl-phenoxy)-piperidin-1-yl]-butane-1,3-dione]",1000 to 10000 nM
11,"COc1ccc(-c2ccc(OC3CCN(C(=O)C(C)C)CC3)cc2)cc1OC [Example 492, 1-[4-(3′,4′-Dimethoxybiphenyl-4-yloxy)-piperidin-1-yl]-2-methyl-propan-1-one]",1000 to 10000 nM
12,"CCC(=O)N1CCC(Oc2ccc(-c3cnc4ccc(OC)cc4c3)cc2)CC1 [Example 53, 1-{4-[4-(6-Methoxyquinolin-3-yl)-phenoxy]-piperidin-1-yl}-propan-1-one]",1000 to 10000 nM
13,"CCC(=O)N1CCC(Oc2ccc(-c3ccc4cccnc4c3NCCOC)cc2)CC1 [Example 328, 1-(4-{4-[8-(2-Methoxyethylamino)-quinolin-7-yl]-phenoxy}-piperidin-1-yl)-propan-1-one]",100 to 999 nM
14,"O=C(C1CC1)N1CCC(Oc2ccc(-c3cnc4ccccc4n3)cc2)CC1 [Example 67, Cyclopropyl-[4-(4-quinoxalin-2-yl-phenoxy)-piperidin-1-yl]-methanone]",100 to 999 nM
15,"Cc1c(-c2ccc(OC3CCN(C(=O)C4CC4(C)C)CC3)cc2)ccc2cccnc12 (centres unmarked) [Example 322, (2,2-Dimethylcyclopropyl)-{4-[4-(8-methyl-quinolin-7-yl)-phenoxy]-piperidin-1-yl}-methanone]",1 to 99 nM
16,"O=C(C1OCCO1)N1CCC(Oc2ccc(-c3cnc4ccccc4c3)cc2)CC1 [Example 152, HCl]",1 to 99 nM
17,"CCC(=O)N1CCC(Oc2ccc(-c3ccc4cccnc4c3OC)cc2F)CC1 [Example 219, 1-{4-[2-Fluoro-4-(8-methoxy-quinolin-7-yl)-phenoxy]-piperidin-1-yl}-propan-1-one]",1 to 99 nM
18,"CCC(=O)N1CCC(Oc2ccc(-c3cnc4sccc4c3)cc2)CC1 [Example 250, 1-[4-(4-Thieno[2,3-b]pyridin-5-yl-phenoxy)-piperidin-1-yl]-propan-1-one, TFA salt]",1 to 99 nM

row,Compound,IC50
1,"O=C(C1CCC1)N1CCC(Oc2ccc(-c3cc4ccccc4cn3)cc2)CC1 [Example 45, Cyclobutyl-[4-(4-isoquinolin-3-yl-phenoxy)-piperidin-1-yl]-methanone]",1 to 99 nM
2,"C[C@@H]1C[C@H](C)[C@H](C(=O)N2CCC(Oc3ccc(-c4cnc5ccccc5c4)cc3)CC2)O1 (racemic) [Example 155, ((2R,3S,5R)/(2S,3R,5S)-3,5-Dimethyl-tetrahydrofuran-2-yl)-[4-(4-quinolin-3-yl-phenoxy)-piperidin-1-yl]-methanone, HCl]",1000 to 10000 nM
3,"CCC(=O)N1CCC(Oc2ccc(-c3cc4ccccc4nc3Cl)cc2)CC1 [Example 16, 1-{4-[4-(2-Chloroquinolin-3-yl)-phenoxy]-piperidin-1-yl}-propan-1-one]",1000 to 10000 nM
4,"CCC(=O)N1CCC(Oc2ccc(-c3cnc4cc(F)ccc4c3)cc2)CC1 [Example 478, 1-{4-[4-(7-Fluoroquinolin-3-yl)-phenoxy]-piperidin-1-yl}-propan-1-one]",1 to 99 nM
5,"Nc1c(-c2ccc(OC3CCN(C(=O)[C@H]4CCCO4)CC3)cc2)ccc2cccnc12 [Example 324, [4-[4-(8-Amino-7-quinolyl)phenoxy]-1-piperidyl]-[(2R)-tetrahydrofuran-2-yl]methanone]",1 to 99 nM
6,"CCCNC(=O)N1CCC(Oc2ccc(-c3ccc4cccnc4c3C)cc2)CC1 [Example 96, 4-[4-(8-methyl-7-quinolyl)phenoxy]-N-propyl-piperidine-1-carboxamide]",1 to 99 nM
7,"Cc1c(-c2ccc(OC3CCN(C(=O)N4CCCO4)CC3)cc2)ccc2cccnc12 [Example 75, Isoxazolidin-2-yl-{4-[4-(8-methyl-quinolin-7-yl)-phenoxy]-piperidin-1-yl}-methanone]",1 to 99 nM
8,"Cc1c(-c2ccc(OC3CCN(C(=O)C4CCCO4)CC3C)cc2)ccc2cccnc12 (stereo in doubt) [Example 377, {3-Methyl-4-[4-(8-methylquinolin-7-yl)-phenoxy]-piperidin-1-yl}-(R)-tetrahydrofuran-2-yl-methanone, TFA salt]",1 to 99 nM
9,Cc1nccc2cc(-c3ccc(OC4CCN(C(=O)C5CC(F)(F)CO5)CC4)cc3)ccc12 (centres unmarked) [Example 165],100 to 999 nM
10,"O=C(c1ccco1)N1CCC(Oc2ccc(-c3cnc4ccccc4c3)cc2)CC1 [Example 111, HCl]",1000 to 10000 nM
11,"O=C(C1CC1)N1CCC(Oc2ccc(-c3ccc4cccnc4c3OCCN3CCCC3)cc2)CC1 [Example 174, Cyclopropyl-(4-{4-[8-(2-pyrrolidin-1-yl-ethoxy)-quinolin-7-yl]-phenoxy}-piperidin-1-yl)-methanone, HCl]",1000 to 10000 nM
12,"COc1nccc2cc(-c3ccc(OC4CCN(C(=O)[C@H]5CCCO5)CC4)cc3)ccc12 [Example 432, {4-[4-(1-Methoxyisoquinolin-6-yl)-phenoxy]-piperidin-1-yl}-(R)-tetrahydro-furan-2-yl-methanone]",1 to 99 nM
13,"CONC(=O)N1CCC(Oc2ccc(-c3ccc4cccnc4c3C)cc2)CC1 [Example 91, N-methoxy-4-[4-(8-methyl-7-quinolyl)phenoxy]piperidine-1-carboxamide]",1 to 99 nM
14,"Cc1c(-c2ccc(OC3CCN(C(=O)N4CCCO4)CC3)cc2)cnc2ccccc12 [Example 78, Isoxazolidin-2-yl-{4-[4-(4-methylquinolin-3-yl)-phenoxy]-piperidin-1-yl}-methanone]",1 to 99 nM
15,"CON(C)C(=O)N1CCC(Oc2ccc(-c3cnc4ccccc4c3C)cc2)CC1 [Example 83, 4-[4-(4-Methylquinolin-3-yl)-phenoxy]-piperidine-1-carboxylic acid methoxymethyl-amide]",1 to 99 nM
16,"CCOc1c(-c2ccc(OC3CCN(C(=O)C4CC4)CC3)cc2)ccc2cccnc12 [Example 168, Cyclopropyl-{4-[4-(8-ethoxyquinolin-7-yl)-phenoxy]-piperidin-1-yl}-methanone, HCl]",100 to 999 nM
17,CCC(=O)N1CCC(Oc2ccc(-c3ccc4cccnc4c3F)cc2)CC1 [Example 22],1 to 99 nM
